Data from patent US4120893A, “Anionic naphthalene thioureido toluenesulfonic acids” (American Cyanamid Company, priority 1977, dated 1978).
Structures can show the parent of a compound that is named as a salt.

Assays:
[1] = test system: activated human C1; experiment: Test, Code 026 (C1 inhibitor); assay type: biochemical; settings: in vitro; two-fold serial dilution assay; higher well number indicates higher activity
Source text: (§1) An active inhibitor protects C2 from C1 and C4; (ii) Test, Code 035 (C3-C9 inhibitor)--This test determines the ability of the late components of human complement (C3-C9) to lyse EAC 142 in the presence of appropriate dilutions of the test compound. An active inhibitor protects EAC 142 from lysis by human C3-C9; (iii) Test, Code 036 (C-Shunt inhibitor)--In this test human erythrocytes rendered fragile are lysed in autologous serum via the shunt pathway activated by cobra venom factor in the presence of appropriate dilutions of the test compound. Inhibition of the shunt pathway results in failure of lysis; (iv) Forssman Vasculitis Test--Here, the well known complement dependent lesion, Forssman vasculitis, is produced in guinea pigs by intradermal injection of rabbit anti-Forssman antiserum. […]
(§2) With reference to Table I, guinea pigs weighing about 300 g were dosed intravenously (i.v.) or intraperitoneally (i.p.) with 200 mg/kg of the test compound dissolved in saline and adjusted to pH 7-8. […] Percent inhibition was calculated by comparison with simultaneous controls. […]

[2] = test system: late components of human complement (C3-C9); experiment: Test, Code 035 (C3-C9 inhibitor), lysis of EAC 142; assay type: cell-based; settings: in vitro; two-fold serial dilution assay; higher well number indicates higher activity
Source text: as §1, §2

[3] = test system: shunt pathway activated by cobra venom factor; experiment: Test, Code 036 (C-Shunt inhibitor), lysis of human erythrocytes in autologous serum; assay type: cell-based; settings: in vitro; two-fold serial dilution assay; higher well number indicates higher activity
Source text: as §1, §2

[4] = test system: whole complement in serum; experiment: Complement Level Reduction Test in dosed guinea pigs (capillary tube assay); assay type: in vivo; settings: guinea pig, intraperitoneal, 200 mg/kg
[5] = test system: complement system; settings: reported in cited literature; cited from earlier work
[6] = test system: hereditary angioneurotic edema; settings: The New England Journal of Medicine, 286, 808-812 (1972); cited from earlier work

Molecule	anticomplementary effect / inhibition of the complement system [5]	use in treatment of hereditary angioneurotic edema [6]	also measured
Cc1c(NC(=S)Nc2cc(S(=O)(=O)[O-])cc3cc(S(=O)(=O)[O-])cc(S(=O)(=O)[O-])c23)cc(S(=O)(=O)[O-])cc1NC(=S)Nc1cc(S(=O)(=O)[O-])cc2cc(S(=O)(=O)[O-])cc(S(=O)(=O)[O-])c12.[Na+].[Na+].[Na+].[Na+].[Na+].[Na+].[Na+] [8,8'-[(2-methyl-5-sulfo-1,3-phenylene)bis(2-thioureylene)]di-1,3,6-naphthalenetrisulfonic acid heptasodium salt]	–	–	C1 026* Wells [1]: +7 Wells; C-Late 035* Wells [2]: N; Shunt Inhibition 036* Wells [3]: N; % change in serum complement level ([4]; 30 minutes): -40%; % change in serum complement level ([4]; 60 minutes): -40%; % change in serum complement level ([4]; 120 minutes): -51%
Cc1ccc(C(=O)Nc2ccc(S(=O)(=O)O)c3cc(S(=O)(=O)O)cc(S(=O)(=O)O)c23)cc1NC(=O)c1cccc(NC(=O)Nc2cccc(C(=O)Nc3cc(C(=O)Nc4ccc(S(=O)(=O)O)c5cc(S(=O)(=O)O)cc(S(=O)(=O)O)c45)ccc3C)c2)c1 [Suramin]	competitive inhibitor of the complement system	used with success	–
Nc1ccc2cc(S(=O)(=O)O)cc(O)c2c1N=Nc1ccc(NC(=O)Nc2ccc(N=Nc3c(N)ccc4cc(S(=O)(=O)O)cc(O)c34)c(S(=O)(=O)O)c2)cc1S(=O)(=O)O [chlorazol fast pink, 3,3'-ureylenebis-[6-(2-amino-8-hydroxy-6-sulfo-1-naphthylazo)]benzenesulfonic acid, tetrasodium salt]	anticomplementary effect	–	–
NCCCCCC(=O)O [epsilon-aminocaproic acid]	–	used with success	–
NC[C@H]1CC[C@H](C(=O)O)CC1 [tranexamic acid]	–	used with success	–
heparin	anticomplementary effect	–	–
